According to ChEMBL document CHEMBL4483862, “Open-source discovery of chemical leads for next-generation chemoprotective antimalarials” (2018):
pIC50: −log10 of the molar value.

Tested on: Plasmodium berghei
Experiment: Luciferase/luciferin-expressing antifolate-resistant parasites were used to infect a culture of HepG2 cells that were pre-incubated with compounds. Infected hepatocytes emit light due to the luciferase reaction. Assay results are presented as the percent inhibition of light emission compared to control. […]
Assay type: functional
Conditions: sporozoite; for IC90: read-out: LUCIFERASE INFECTION ASSAY - IC90
[1] = read-out: LUCIFERASE INFECTION ASSAY - IC50

SMILES	IC90	pIC50 [1]	further results
Oc1cccnc1NC(c1ccc(Br)cc1)c1ccc2cccnc2c1O (configuration not stated)	7.73 µM	–	pIC50 (FFLUC_HILL_SLOPE 24.2, FFLUC_R_SQUARED 0.301, HEPG2TOX_HILL_SLOPE 1.67, HEPG2TOX_R_SQUARED 0.953, PBLUC_HILL_SLOPE 5.65, PBLUC_R_SQUARED 0.637, read-out: LUCIFERASE INFECTION ASSAY - IC50): 5.28
COc1cc(NS(=O)(=O)c2ccc(C)cc2)c(OC)cc1Cl	3.66 µM	5.70	–
C=CCn1c(COc2cc(C)ccc2C(C)C)nnc1SCC(=O)NCC12CC3CC(CC(C3)C1)C2	> 10 µM	–	pIC50 (PBLUC_HILL_SLOPE 17.6, PBLUC_R_SQUARED 0.542, read-out: LUCIFERASE INFECTION ASSAY - IC50): 5.03
CSc1cccc(N2C(=O)C=C(C)C2=O)c1	> 14.1 µM	–	pIC50 (PBLUC_HILL_SLOPE 2.08, PBLUC_R_SQUARED 0.24, read-out: LUCIFERASE INFECTION ASSAY - IC50): 4.87
OC(CNCC1COc2ccccc2C1)COc1ccc(Cl)cc1Cl (configuration not stated)	> 10 µM	< 5.00	–
O=C(COc1ccccc1SCc1ccc(Cl)cc1)NNC(=O)c1cccc(C(F)(F)F)c1	> 6.67 µM	< 5.18	–
COc1ccccc1-c1ccc2ncc(-c3ccc(CO)cc3)n2n1	> 10 µM	5.12	–
Cc1cc(NC(=O)c2ccc(CSCc3c(Cl)cccc3Cl)cc2)no1	1.31 µM	–	pIC50 (FFLUC_HILL_SLOPE 28.8, FFLUC_R_SQUARED 0.69, PBLUC_HILL_SLOPE 8.08, PBLUC_R_SQUARED 0.529, read-out: LUCIFERASE INFECTION ASSAY - IC50): 6.00
Cc1nc(N2CCc3ccccc32)c2c3c(sc2n1)CCC3	4.64 µM	–	pIC50 (HEPG2TOX_HILL_SLOPE 9.23, HEPG2TOX_R_SQUARED 0.902, PBLUC_HILL_SLOPE 9.42, PBLUC_R_SQUARED 0.51, read-out: LUCIFERASE INFECTION ASSAY - IC50): 5.43
O=C(NCC1(c2ccccc2)CCC1)c1ccc(Cn2nnc3ccccc32)cc1	> 10 µM	< 5.00	–
CCOC(=O)c1c(-c2ccccc2)oc2ccc(OCC(O)CNCCN(C)C)cc12 (configuration not stated)	> 10 µM	–	pIC50 (PBLUC_HILL_SLOPE 9.38, PBLUC_R_SQUARED 0.614, read-out: LUCIFERASE INFECTION ASSAY - IC50): 5.05
CC1(C)CC(=O)C=C(Sc2nc3cc(Cl)ccc3s2)C1	> 10.2 µM	< 4.99	–
O=C(Nc1nc2ccc(OC(F)(F)F)cc2s1)c1cnccn1	3.41 µM	–	pIC50 (FFLUC_HILL_SLOPE 1.04, FFLUC_R_SQUARED 0.266, PBLUC_HILL_SLOPE 101, PBLUC_R_SQUARED 0.2, read-out: LUCIFERASE INFECTION ASSAY - IC50): 5.48
C/C(=N\N1CCCCC1)c1ccccc1O	> 10 µM	< 5.00	–
Cc1noc(C)c1CSc1ncccc1C(=O)N(C)c1ccc2ccccc2c1	> 10 µM	< 5.00	–
O=C(NCCO)c1cccc(-c2ccc3ncc(-c4cccnc4)n3n2)c1	3.93 µM	–	pIC50 (HEPG2TOX_HILL_SLOPE 1.56, HEPG2TOX_R_SQUARED 0.733, PBLUC_HILL_SLOPE 4.25, PBLUC_R_SQUARED 0.42, read-out: LUCIFERASE INFECTION ASSAY - IC50): 5.63
CNC(=O)c1ccc(CN(C(=O)/C=C/c2ccc(-c3ccccc3F)s2)C2CC2)cc1	6.45 µM	–	pIC50 (PBLUC_HILL_SLOPE 95.6, PBLUC_R_SQUARED 0.262, read-out: LUCIFERASE INFECTION ASSAY - IC50): 5.20
Clc1ccc(-c2cnc3sc(NCCc4ccncc4)nn23)cc1	> 9.27 µM	< 5.03	–
NC(=O)c1ccsc1NC(=O)Cc1ccc(-c2ccccc2)cc1	3.7 µM	–	pIC50 (PBLUC_HILL_SLOPE 3.68, PBLUC_R_SQUARED 0.581, read-out: LUCIFERASE INFECTION ASSAY - IC50): 5.69
Cc1ccc(N2C(=O)c3ccccc3C(C=NNc3ccc(S(=O)(=O)N4CCCC4)cc3[N+](=O)[O-])C2=O)cc1 (configuration not stated)	> 10 µM	–	pIC50 (FFLUC_HILL_SLOPE 3.06, FFLUC_R_SQUARED 0.613, HEPG2TOX_HILL_SLOPE 13, HEPG2TOX_R_SQUARED 0.977, read-out: LUCIFERASE INFECTION ASSAY - IC50): < 5.00
O=C1C=C(Nc2ccccc2)/C(=N\c2ccccc2)c2c1oc1ccc(Nc3ccccc3)cc21	> 10 µM	–	pIC50 (FFLUC_HILL_SLOPE 1.75, FFLUC_R_SQUARED 0.754, HEPG2TOX_HILL_SLOPE 1.61, HEPG2TOX_R_SQUARED 0.885, read-out: LUCIFERASE INFECTION ASSAY - IC50): < 5.00
CC1(c2ccc(F)cc2)NC(=O)N(Cc2csc(-c3ccc(F)cc3)n2)C1=O (configuration not stated)	> 10 µM	–	pIC50 (PBLUC_HILL_SLOPE 12.9, PBLUC_R_SQUARED 0.121, read-out: LUCIFERASE INFECTION ASSAY - IC50): 5.03
CS(=O)(=O)Nc1cccc(-c2cn3c(-c4cccc(OC(F)(F)F)c4)cnc3cn2)c1	> 7.36 µM	–	pIC50 (PBLUC_HILL_SLOPE 13.3, PBLUC_R_SQUARED 0.233, read-out: LUCIFERASE INFECTION ASSAY - IC50): 5.15

SMILES	IC90	pIC50 [1]	further results
O=C(NCCO)c1ccc(-c2cn3c(-c4ccc(Oc5ccccc5)cc4)cnc3cn2)cc1	> 7.33 µM	< 5.13	–
Cc1ccc(/C(C#N)=C/c2ccc3c(c2)OCO3)cc1	> 12.5 µM	–	pIC50 (HEPG2TOX_HILL_SLOPE 2.41, HEPG2TOX_R_SQUARED 0.881, PBLUC_HILL_SLOPE 2.57, PBLUC_R_SQUARED 0.299, read-out: LUCIFERASE INFECTION ASSAY - IC50): 5.04
Cc1ccc(NCC(=O)c2ccc(-n3nncc3-c3ccccc3)cc2)cc1	> 10 µM	< 5.00	–
COc1cc(/C=C/C(=O)c2ccc(C#N)cc2)cc(Br)c1OCC(=O)N(C)C	> 10 µM	–	pIC50 (PBLUC_HILL_SLOPE 20.1, PBLUC_R_SQUARED 0.243, read-out: LUCIFERASE INFECTION ASSAY - IC50): 5.02
N#Cc1c(F)ccc(NC(=O)Nc2ccc(Cl)cc2)c1F	> 10.7 µM	–	pIC50 (PBLUC_HILL_SLOPE 14.7, PBLUC_R_SQUARED 0.232, read-out: LUCIFERASE INFECTION ASSAY - IC50): 4.97
CC(Cn1cccn1)NC(=O)C(=O)Nc1ccccc1SC1CCCC1 (configuration not stated)	5.88 µM	–	pIC50 (PBLUC_HILL_SLOPE 6.42, PBLUC_R_SQUARED 0.787, read-out: LUCIFERASE INFECTION ASSAY - IC50): 5.38
O=C(CN(Cc1ccccc1)S(=O)(=O)c1ccc(Cl)cc1)Nc1nnc(C(F)(F)F)s1	3.96 µM	–	pIC50 (HEPG2TOX_HILL_SLOPE 2.23, HEPG2TOX_R_SQUARED 0.869, PBLUC_HILL_SLOPE 13.4, PBLUC_R_SQUARED 0.351, read-out: LUCIFERASE INFECTION ASSAY - IC50): 5.47
O=C(NCCN1CCN(c2ncnc3sc4c(c23)CCC4)CC1)c1ccco1	> 10 µM	< 5.00	–
O=S(=O)(c1cc(C(F)(F)F)cc(C(F)(F)F)c1)N1CCc2c([nH]c3ccccc23)C1C(F)(F)F (configuration not stated)	> 6.39 µM	–	pIC50 (PBLUC_HILL_SLOPE 1.65, PBLUC_R_SQUARED 0.099, read-out: LUCIFERASE INFECTION ASSAY - IC50): 5.30
CC1CCCCC1Nc1ncnc2sccc12 (configuration not stated)	> 10 µM	–	pIC50 (HEPG2TOX_HILL_SLOPE 0.142, HEPG2TOX_R_SQUARED 0.36, PBLUC_HILL_SLOPE 4.81, PBLUC_R_SQUARED 0.31, read-out: LUCIFERASE INFECTION ASSAY - IC50): 5.01
Cn1nc(-c2ccc(/C=N/NC(=O)c3ccc(Cl)cc3Cl)s2)cc1C(F)(F)F	> 7.38 µM	< 5.13	–
COc1cc(/C=C(/C(=O)c2cccs2)c2nc3ccccc3[nH]2)cc(OC)c1O	> 10 µM	–	pIC50 (HEPG2TOX_HILL_SLOPE 9.16, HEPG2TOX_R_SQUARED 0.911, PBLUC_HILL_SLOPE 3.79, PBLUC_R_SQUARED 0.1, read-out: LUCIFERASE INFECTION ASSAY - IC50): 5.13
CN(CC(=O)Nc1ccc(-c2nnc3n2CCCCC3)cc1)C1CCS(=O)(=O)C1 (configuration not stated)	> 10 µM	< 5.00	–
CCCCNc1nc2ccccc2n1CC(=O)Nc1ccc(S(=O)(=O)N2CCCC2)cc1	> 10 µM	–	pIC50 (PBLUC_HILL_SLOPE 1.82, PBLUC_R_SQUARED 0.488, read-out: LUCIFERASE INFECTION ASSAY - IC50): 5.44
CCc1ccccc1N(CC(=O)NCC(C)C)S(=O)(=O)c1ccc(C)cc1	> 8.49 µM	< 5.07	–
CCOc1ccccc1NC(=O)CSc1nnc2cc(C)c3ccccc3n12	> 10 µM	< 5.00	–
c1ccc(C(CCNCc2ccco2)c2ccco2)cc1 (configuration not stated)	> 11.7 µM	–	pIC50 (HEPG2TOX_HILL_SLOPE 6.65, HEPG2TOX_R_SQUARED 0.638, PBLUC_HILL_SLOPE 2.47, PBLUC_R_SQUARED 0.734, read-out: LUCIFERASE INFECTION ASSAY - IC50): 5.31
COc1ccnc(N2CCN(C(c3ccccc3)c3ccccc3)CC2)c1C#N	> 8.58 µM	–	pIC50 (PBLUC_HILL_SLOPE 3.87, PBLUC_R_SQUARED 0.686, read-out: LUCIFERASE INFECTION ASSAY - IC50): 5.23
Cc1ccc(C(=O)Nc2nc3ccccc3[nH]2)cc1F	4.06 µM	–	pIC50 (FFLUC_HILL_SLOPE 1.36, FFLUC_R_SQUARED 0.795, PBLUC_HILL_SLOPE 11.8, PBLUC_R_SQUARED 0.45, read-out: LUCIFERASE INFECTION ASSAY - IC50): 5.47
CC(C)(C)N1C(=O)CC(=O)CC1c1ccc(Cl)cc1 (configuration not stated)	11.1 µM	5.02	–
Cc1c(C(=O)C(F)(F)F)c(-c2nn(-c3ccccc3)c(NC(=O)C(F)(F)F)c2C(=O)C(F)(F)F)c(C)n1-c1ccc(Br)cc1	> 10 µM	–	pIC50 (FFLUC_HILL_SLOPE 15.1, FFLUC_R_SQUARED 0.397, PBLUC_HILL_SLOPE 2.07, PBLUC_R_SQUARED 0.0694, read-out: LUCIFERASE INFECTION ASSAY - IC50): 5.18
CC1CCN(CC(O)COC2CC(C)CC(C)(C)C2)CC1 (configuration not stated)	> 9.88 µM	< 5.01	–
O=C1/C(=C\c2ccncc2)C(c2ccccc2)Oc2ccccc21 (configuration not stated)	9.96 µM	5.04	–
